In patent publication US4663326A, “Pyrazolo[4,3-d]pyrimidine-5,7-(4H,6H)dione or -5-thione-7-one analogs” (Warner-Lambert Company, priority 1985, dated 1987):

Legend:
[1] = target: T1, adenosine receptors (designated A1) (Rattus norvegicus, UniProt P25099); test: Adenosine receptor binding - A1 receptor affinity (RBA1), [3H]-CHA displacement, rat whole brain minus cerebellum and brainstem membranes; set-up: species or system rat (male Long Evans); conditions: 1.0 nM [3H]-CHA, 25° C., pH 7.7; repeat tests (Test 1-4) one line each; read-out: RBA-1 (IC50, adenosine A1 affinity)
T1 construct: Whole brain minus cerebellum and brainstem from male Long Evans rats (150-200 g); from tissue; host or cells: whole brain minus cerebellum and brainstem, male Long Evans rats, membranes
T1 sequence (P25099 1-326): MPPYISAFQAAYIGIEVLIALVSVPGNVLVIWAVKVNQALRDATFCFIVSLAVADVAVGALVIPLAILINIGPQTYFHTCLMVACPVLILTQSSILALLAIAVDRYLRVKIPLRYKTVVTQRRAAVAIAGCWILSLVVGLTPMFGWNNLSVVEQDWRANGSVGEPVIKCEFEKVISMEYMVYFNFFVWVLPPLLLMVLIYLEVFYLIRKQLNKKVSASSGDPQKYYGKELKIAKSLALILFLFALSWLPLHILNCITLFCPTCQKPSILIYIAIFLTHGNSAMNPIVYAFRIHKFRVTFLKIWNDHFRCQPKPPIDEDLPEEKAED
Procedure: ADENOSINE RECEPTOR BINDING-A1 RECEPTOR AFFINITY (RBA1)
Whole brain minus cerebellum and brainstem from male Long Evans rats (150-200 g) was homogenized in 30 volumes of ice-cold 0.05M Tris-HCl buffer pH 7.7 using a Brinkman Polytron PT-10, (setting number 6 for 20 seconds) and centrifuged for ten minutes at 20,000×g (Sorvall RC-2), 4° C. The supernatant was discarded, and the pellet was resuspended and centrifuged as before. The pellet was resuspended in 20 ml Tris-HCl buffer containing two International Units/ml of adenosine deaminase (Sigma type III from calf intestinal mucosa), incubated at 37° C. for 30 minutes, then subsequently at 0° C. for ten minutes. The homogenate was again centrifuged, and the final pellet was resuspended in ice-cold 0.05M Tris-HCl buffer pH 7.7 to a concentration of 20 mg/ml original wet tissue weight and used immediately.
Tissue homogenate (10 mg/ml) was incubated in 0.05M Tris-HCl buffer pH 7.7 containing 1.0 nM [^3 H]-N^6 -cyclohexyladenosine (^3 H]-CHA) with or without test agents in triplicate for one hour at 25° C. Incubation volume was 2 ml. Unbound [^3 H]-CHA was separated by rapid filtration under reduced pressure through Whatman glass fiber (GF/B) filters. The filters were rinsed three times with 5 ml of ice cold 0.05M Tris-HCl buffer pH 7.7. The radio-labeled ligand retained on the filter was measured by liquid scintillation spectrophotometry after shaking the filters for one hour or longer on a mechanical shaker in 10 ml of Beckman Ready-Solv HP scintillation cocktail.
Nonspecific binding was defined as the binding which occurred in the presence of 1 mM theophylline. The concentration of test agent which inhibited 50% of the specific binding (IC50) was determined by nonlinear computer curve fit. The Scatchard plot was calculated by linear regression of the line obtained by plotting the amount of radioligand bound ([…]) versus [bound radioligand/free radioligand].Since the amount of radioligand bound was a small fraction of the total amount added, free radioligand was defined as the concentration (nM) of radioligand added to the incubation mixture. The Hill coefficient was calculated by linear regression of the line obtained by plotting the log of the bound radioligand vs the log of the [bound radioligand/(Bmax -bound radioligand)]. The maximal number of binding sites (Bmax) was calculated from the Scatchard plot.

Type 1 Phosphodiesterase = test: PDE inhibition, Type 1 phosphodiesterase, smooth muscle (bovine coronary arteries); assay type: biochemical; conditions: 1 × 10^-5 M
Description: The method of Thompson, et al (Thompson, W. J., Terasaki, W. L., Epstein, P. M., Strada, S. J., Adv. Cyclic Nucleotide Res., 10:69-92, 1979), with minor modifications, was used to isolate phosphodiesterases from vascular smooth muscle. Bovine coronary arteries (right, anterior descending, and left circumflex arteries) from hearts obtained from a local slaughterhouse were used for these studies. Arteries from two hearts were used for each isolation. Hearts were kept on ice and the arteries were dissected within two hours after the animals were sacrificed. After removing all fat and connective tissue, the arteries were everted, cut into cubes with a single edge razor blade and homogenized with a Brinkman Polytron three times at a rheostat setting of 10.0 in four volumes of the PDE isolation buffer (10 mM Tris-HCl/pH 7.5, 2 mM MgCl2, and 1 mM dithiothreitol). The resulting homogenate was sonicated (30 sec/ml homogenate) and then centrifuged at 30,000×g for 20 minutes. This and all subsequent procedures were performed at 4° C. The resulting supernatant was filtered through four layers of gauze, and applied to a DEAE-cellulose column (30×1.5 cm), prepared as described by Cheung (Cheung, W. Y., Biochim. Biopphys. Acta, 191:303-315, 1969), and equilibrated with freshly prepared 70 mM sodium acetate/5 mM 2-mercaptoethanol (pH 6.5). The column was then washed with 2-3 bed volumes of sodium acetate/2-mercaptoethanol, after which the phosphodiesterases were eluted from the column using a continuous 70-1,000 mM sodium acetate gradient (pH 6.5, containing 5 mM 2-mercaptoethanol; total volume 400 ml). The flow rate was approximately equal to 25 ml/hr. Eight ml fractions were collected and assayed for cyclic AMP- and cyclic GMP-phosphodiesterase activity in the presence and absence of 0.1 units of calmodulin and 10 mM CaCl2. Appropriate fractions were pooled and dialyzed against 70 mM sodium acetate/5 mM 2-mercaptoethanol for 20 hours.
Following complete separation, the combined phosphodiesterase fractions were concentrated to 14% of the original volume using an Amicon ultrafiltration cell fitted with a UM-10 membrane, according to the method of Wells, et al (Wells, J. N., Baird, C. E., Wu, Y. J., Hardman, J. G., Biochim. Biophys. Acta, 384:430-442, 1975). Following concentration, the protein was then diluted to 65% with ethylene glycol monoethyl ether, and stored at -20° C.
Phosphodiesterase activity was measured as described previously (Weishaar, P. E., Quade, M., Boyd, D., Schenden, J., Mark, S. S., Kaplan, H. R., Drug Devel. Res., 3:517-534, 1983), in a reaction medium containing 40 mM Tris-HCl (pH 8.0), 5 mM MgCl and 4 mM 2-mercaptoethanol. Unless otherwise noted, the concentration of substrate (^3 H-cyclic AMP or ^3 H-cyclic GMP) was 1.0 μM. […]

| IC50 [1] | % Inhibition of 3H-cAMP Hydrolysis, Type 1 Phosphodiesterase (Type 1 Phosphodiesterase) | % Inhibition of 3H-cGMP Hydrolysis, Type 1 Phosphodiesterase (Type 1 Phosphodiesterase) | SMILES |
| --- | --- | --- | --- |
| 11 µM | N (0-20% inhibition at 1 × 10^-5 M) | N (0-20% inhibition at 1 × 10^-5 M) | Cc1nn(C)c2c(=O)[nH]c(=O)[nH]c12 [Example 1, 1,3-Dimethylpyrazolo[4,3-d]pyrimidine-5,7-(4H, 6H)dione] |
| 19.3 µM | N (0-20% inhibition at 1 × 10^-5 M) | N (0-20% inhibition at 1 × 10^-5 M) | CCn1nc(C)c2[nH]c(=S)[nH]c(=O)c21 [Example 2, 1-Ethyl-1,4,5,6-tetrahydro-3-methyl-pyrazolo[4,3-d]pyrimidine-5-thione-7-on] |
